The experiment concerns the target mouse TAAR1 (Mus musculus (Mouse), UniProt Q923Y8). Description: Radioligand binding assay on mouse TAAR1. The settings on record: mouse TAAR1, HEK-293 membranes; first value of mouse/rat pair. Here is the method:
For the construction of expression plasmids the coding sequences of human, rat and mouse TAAR 1 were amplified from genomic DNA essentially as described by Lindemann et al.. […] PCR products were subcloned into the pIRESneo2 vector (BD Clontech, Palo Alto, Calif.), and expression vectors were sequence verified before introduction in cell lines.
HEK293 cells (ATCC #CRL-1573) were cultured essentially as described by Lindemann et al. (2005). […] After a culture period of about 10 d clones were isolated, expanded and tested for responsiveness to trace amines (all compounds purchased from Sigma) with the cAMP Biotrak Enzyme immunoassay (EIA) System (Amersham) following the non-acetylation EIA procedure provided by the manufacturer.
Radioligand Binding Assay on Mouse TAAR1
Membrane Preparation and Radioligand Binding.
HEK-293 cells stably expressing mouse TAAR1 were maintained at 37° C. and 5% CO2 in DMEM high glucose medium, containing fetal calf serum (10%, heat inactivated for 30 min at 56° C.), penicillin/streptomycin (1%), and 375 μg/ml geneticin (Gibco). Cells were released from culture flasks using trypsin/EDTA, harvested, washed twice with ice-cold PBS (without Ca^2+ and Mg^2+), pelleted at 1′000 rpm for 5 min at 4° C., frozen and stored at −80° C. […] With each new membrane batch the dissociation constant (Kd) was determined via a saturation curve. […]

Counter-ions that a name gives are not always drawn.

Data on 1 molecule can be found in patent US11697636B2, “Substituted benzamides” (Hoffmann-La Roche Inc., priority 2009, dated 2023).

mouse TAAR1, sequence (Q923Y8 whole entry): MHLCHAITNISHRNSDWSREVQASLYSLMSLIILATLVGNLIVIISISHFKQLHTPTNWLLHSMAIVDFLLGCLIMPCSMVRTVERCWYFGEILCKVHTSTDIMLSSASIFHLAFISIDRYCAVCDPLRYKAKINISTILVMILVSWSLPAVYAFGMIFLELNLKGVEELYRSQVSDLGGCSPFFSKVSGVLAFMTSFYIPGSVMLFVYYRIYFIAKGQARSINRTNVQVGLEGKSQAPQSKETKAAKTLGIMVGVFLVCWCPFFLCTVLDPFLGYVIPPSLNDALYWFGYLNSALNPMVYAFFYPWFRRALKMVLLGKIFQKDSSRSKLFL

In general, Ki refers to the equilibrium dissociation constant of an inhibitor or competing ligand from its target. The low end stands for higher affinity, the high end for lower affinity. Molecule `O=C(Nc1ccccc1)Nc1ccc(C2CCNC2)cc1` (racemic) [Example 6, (RS)-1-Phenyl-3-(4-pyrrolidin-3-yl-phenyl)-urea hydrochloride] came in with a Ki of 32 µM.
